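How tested: cells in 96-well plates exposed to compound for 48 hours at five concentrations. Abbreviation: GI50, concentration required for 50% inhibition of growth. TGI: total growth inhibition.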
How the values were obtained:
Experiment in all cases: DTP human tumour cell line panel, 48 h
SF-295 CNS = test system: SF-295 CNS
MALME-3M melanoma = test system: MALME-3M melanoma
SW-620 colon = test system: SW-620 colon
HCC-2998 colon = test system: HCC-2998 colon
OVCAR-8 ovarian = test system: OVCAR-8 ovarian
SK-MEL-2 melanoma = test system: SK-MEL-2 melanoma
CAKI-1 renal = test system: CAKI-1 renal
HL-60(TB) leukemia = test system: HL-60(TB) leukemia
A549 NSCLC = test system: A549 NSCLC
SR leukemia = test system: SR leukemia

| SMILES | TGI (SF-295 CNS) [µM] | TGI (MALME-3M melanoma) [µM] | TGI (SW-620 colon) [µM] | TGI (HCC-2998 colon) [µM] | TGI (OVCAR-8 ovarian) [µM] | TGI (SK-MEL-2 melanoma) [µM] | TGI (CAKI-1 renal) [µM] | TGI (HL-60(TB) leukemia) [µM] | TGI (A549 NSCLC) [µM] | TGI (SR leukemia) [µM] | GI50 (SF-295 CNS) [µM] | GI50 (MALME-3M melanoma) [µM] | GI50 (SW-620 colon) [µM] | GI50 (HCC-2998 colon) [µM] | GI50 (OVCAR-8 ovarian) [µM] | GI50 (SK-MEL-2 melanoma) [µM] | GI50 (CAKI-1 renal) [µM] | GI50 (HL-60(TB) leukemia) [µM] | GI50 (A549 NSCLC) [µM] | GI50 (SR leukemia) [µM] |
| --- | --- | --- | --- | --- | --- | --- | --- | --- | --- | --- | --- | --- | --- | --- | --- | --- | --- | --- | --- | --- |
| C(=N\Nc1ccccc1)/c1nc2ccccc2nc1/C=N/Nc1ccccc1 | 30.5 | 41.6 | 30.7 | 25.3 | 17 | 39.3 | 21.4 | > 100 | 28.8 | > 84.7 |  |  |  |  |  |  |  |  |  |  |
| CCCCCCCCC/C(=N\NC(=O)c1ccncc1)c1ccc(O)c(O)c1O | > 100 | > 100 | 28.3 | > 36.6 | > 100 | > 100 | > 100 | 0.955 | > 100 | 24.4 | 0.307 | 0.491 | 0.365 | 0.199 | 0.179 | 0.521 | 0.088 | 0.288 | 0.302 | 0.0576 |
| O=C([O][Hg][CH2]C1OCCOC1[CH2][Hg][O]C(=O)c1ccccc1)c1ccccc1 (centres undefined) | 32.7 | 3.88 | 3 | 30.8 | 44 |  | 3.12 | 7.41 | 32.8 | 7.21 | 17.6 | 2.18 | 1.54 | 17.1 | 14.9 | 5.05 | 1.74 | 2.67 | 16.7 | 2.22 |

From PubChem BioAssay (NCI)
